How the values were obtained:
[1] = tested on: VCAM1 expression in End.3; assay: PGE2-induced VCAM1 expression in End.3 with selective EP antagonists; format: cell-based, murine; details: End.3 cells, PGE2 stimulated
From the text: (§1) Inflamed vessels serve as a gateway for MSCs to enter tissue parenchyma. VCAM1 engagement to integrin α4β1 (very late antigen 4; VLA4) mediates shear resistant adhesion of MSCs to the vessel wall that leads to their trans-endothelial migration. […] Similarly, VCAM1 vascular expression was elevated in PGE2 treated mice compared to untreated ones (FIG. 10(B)). Accordingly, shear resistant adhesion of human MSCs was 2-fold higher to PGE2 treated HMVECs than to untreated ones; however, VCAM1 neutralizing antibody abrogated PGE2-induced shear resistant adhesion of MSCs (FIG. 10(C)). […] The white circle in the left panel of FIG. 10(D) indicates infiltrating GFP+ MSCs, and the inset in the upper left corner is a close-up image of the corresponding location. Since VLA4 is the ligand for VCAM1, and conformational change of VLA4 is prerequisite for binding to VCAM1, ligand binding assay using FITC-LDV peptide (which selectively binds to an active form of VLA4) was performed.
PGE2 exerts its action through the binding to 4 types of prostaglandin E receptor (EP1, 2, 3, and 4), which ubiquitously express in various cell types. Human endothelial cells express all 4 types of EP receptors. […] Therefore, without wishing to be bound by theory, an explanation of biopsy-induced metastasis is that systemic availability of PGE2 leads to an elevation of VCAM1 expression in the pulmonary vessels through the EP4 receptor, resulting in increased MSCs tissue infiltration that initiates a provisional PMN in the perivascular space of the lungs (see overview model in FIG. 8).

[2] = tested on: bone marrow-derived primary Mϕ; assay: PGE2-mediated arginase expression in bone marrow-derived primary Mϕ with EP inhibitors; format: cell-based; details: Mϕ incubated with PGE2 and selective EP inhibitor
Protocol: (§2) To further identify the biological consequences of abundant PGE2, the bone marrow-derived primary Mϕ was incubated with 10 μM PGE2. […] PGE2 exerts its action through 4 integral membranous E prostanoid receptors (EP1, EP2, EP3, and EP4). The Mϕ was incubated with PGE2 and selective pharmacologic inhibitors against respective prostaglandin E2 receptor (EP2).

[3] = tested on: Py230mCherry tumor; assay: Biopsy-induced lung metastasis in Py230mCherry tumor bearing mice, oral COX2/EP2 inhibitors; format: in vivo; details: daily following biopsy, n=15 per group
[4] = tested on: py230 BC cells; assay: Experimental metastasis model: intravenous PGE2 priming followed by py230 BC cell injection; format: in vivo; details: intravenous PGE2 at level equal to post-biopsy blood, versus untreated mice
From the text: Wounding triggers a repair cascade by forming a fibrin matrix containing a series of chemo-attractants (e.g., TGF-β, bFGF, PDGF, TNFα, and EGF) that recruit MSCs from bone marrow to the injured site. MSCs produce innumerable growth factors, cyto-chemokines, and metabolites that promote angiogenesis, immunomodulation, and ECM remodeling in order to repair the damaged tissue. […] MSC2 is characterized by a high level of PGE2 release, a potent vasodilater. […] Given the high interstitial pressure coupled with insufficient lymphatic drainage due to superficial lymphatic vessels in solid tumors, soluble factors seep into the circulation from the tumor. Accordingly, PGE2 levels in the blood were 3 times higher in the biopsied mice compared to that in mice bearing unbiopsied tumors or mice without tumor burden (FIG. 6(C)). PGE2 is enzymatically converted from arachidonic acid by the rate-limiting enzyme Cyclooxygenase (COX). COX2 expression is induced by inflammatory stimuli, whereas COX1 is constitutive. […] However, the biologic mechanism by which circulating PGE2 promotes metastasis has heretofore remained unknown.
PGE2-induced hyper-permeation sites indicated by leakage of 40 kDa FITC-dextran (green) coincided with accumulation of SSEA4^+ MSCs (red), a key component of the PMN^51 (FIG. 9(C)).

[5] = tested on: pulmonary vessels; assay: Pulmonary vessel permeability (Evans Blue leakage) after intravenous PGE2; format: in vivo, mice; details: intravenous injection, versus saline
[6] = tested on: human microvessel endothelial cells (HMVECs); assay: PGE2 induction of VCAM1 mRNA in HMVECs; format: cell-based; details: PGE2 level equivalent to post-biopsy blood
From the text: as §1

[7] = tested on: murine endothelial cell line (End.3); assay: PGE2 induction of VCAM1 mRNA in End.3; format: cell-based; details: End.3, PGE2 level equivalent to post-biopsy blood
From the text: as §1

[8] = tested on: VCAM1 vascular expression; assay: VCAM1 vascular expression in PGE2 treated mice; format: in vivo; details: PGE2 treated versus untreated mice
From the text: as §1

[9] = tested on: HMVECs; assay: Shear resistant adhesion of human MSCs to HMVECs; format: cell-based; details: PGE2 treated HMVECs versus untreated
From the text: as §1

[10] = tested on: bone marrow-derived primary Mϕ; assay: Quantitative PCR of M2/M1 marker mRNAs in bone marrow-derived primary Mϕ incubated with PGE2; format: cell-based; details: 10 μM PGE2
Protocol: as §2

[11] = tested on: lung; assay: Adoptive transfer of GFP+ MSCs into PGE2 pre-treated mice; format: in vivo
From the text: as §1

[12] = tested on: 4T1-Luc tumors; assay: Organ metastasis-free survival of 4T1-Luc tumor mice with or without biopsy, oral ibuprofen; format: in vivo
Protocol: To experimentally explore the hypothesis that inhibition of PGE2 biosynthesis by NSAIDs diminishes biopsy-induced metastasis, 4T1-Luc tumors were biopsied or left unbiopsied (n=10 per group) once tumor size reached 100 mm^3. One day later, daily oral ibuprofen (non-selective COX inhibitor) or saline was started (50 mg/kg) for 9 days, until the day before mastectomy. Mice were then monitored for metastasis over the next 3 months. […] In contrast, cellularity and COX2 expression in the biopsy wound were far less in mice that were treated with ibuprofen (FIG. 12(B)).

[13] = tested on: PGE2 level in biopsied mouse tumors; assay: PGE2 level in biopsied mouse tumors after oral ibuprofen; format: in vivo; details: oral administration; to a level equal to the unbiopsied tumor
[14] = tested on: primary mouse MSCs; assay: Biopsy-WF induced PGE2 release from primary mouse MSCs; format: cell-based; details: primary mouse MSCs treated with biopsy-WF

Cc1cc(Cl)ccc1S(=O)(=O)NC[C@H]1C2CCC(CC2)[C@@H]1/C=C\CCCC(=O)O [0N08711]
PGE2-induced VCAM1 expression [1]: no effect
PGE2-mediated arginase expression [2]: no inhibitory effect

CCCCc1nn(-c2ccccc2C(F)(F)F)c(=O)n1Cc1ccc(-c2ccccc2S(=O)(=O)NC(=O)c2sccc2C)cc1 [L-161982]
PGE2-induced VCAM1 expression [1]: blocked
PGE2-mediated arginase expression [2]: no inhibitory effect

COc1ccc(Br)cc1S(=O)(=O)NC(=O)/C=C/c1ccccc1Cc1ccc2ccccc2c1 [L-798106]
PGE2-mediated arginase expression [2]: no inhibitory effect

COc1ccc2cc(OCC3(C(=O)O)CN(C(=O)c4ccc(F)cc4)C3)ccc2c1 [PF-04418948]
PGE2-induced VCAM1 expression [1]: no effect
PGE2-mediated arginase expression [2]: abrogated
biopsy-induced lung metastasis [3]: significantly reduced

CCCCC[C@H](O)/C=C/[C@H]1[C@H](O)CC(=O)[C@@H]1C/C=C\CCCC(=O)O [PGE2, prostaglandin E2]
pulmonary metastasis of py230 BC cells [4]: enhanced pulmonary metastasis
vessel permeability (Evans Blue leakage into the lungs) [5]: increased vessel permeability
VCAM1 mRNA expression [6]: induce
VCAM1 mRNA expression [7]: induce
VCAM1 vascular expression [8]: elevated
shear resistant adhesion of human MSCs [9]: 2 fold
M1 marker mRNAs (iNOS and TNFα) [10]: decrease
M2 marker mRNA expression (arginase, YM1, YM2) [10]: increase
infiltration of GFP+ MSCs [11]: preferential infiltration to perivascular space

CC(C)Cc1ccc(C(C)C(=O)O)cc1 (stereo not drawn) [ibuprofen]
onset of metastasis ([12]; biopsied 4T1-Luc mice, daily oral 50 mg/kg for 9 days): delayed onset
metastasis incidence ([12]; biopsied 4T1-Luc mice, daily oral 50 mg/kg for 9 days, monitored 3 months, biopsied without drug 6/10): 2/10
cellularity and COX2 expression in the biopsy wound ([12]; histopathology of mastectomized tumors, versus untreated biopsied): far less
effect on metastasis in mice that did not receive biopsy ([12]; unbiopsied 4T1-Luc mice, daily oral 50 mg/kg): no significant effect
PEG2 level in biopsied mouse tumors [13]: significantly reduced
biopsy-WF induced PGE2 release [14]: equally abrogated

COc1ccc2c(c1)c(CC(=O)O)c(C)n2C(=O)c1ccc(Cl)cc1 [indomethacin]
biopsy-WF induced PGE2 release [14]: equally abrogated
